Source: US20230279002A1, “Polymorphs of Crystalline Forms of 3,10-dimethoxy-5,8,13,13a-tetrahydro-6H-isoquinolino[3,2-a]isoquinolin-9-yl 3-fluorobenzenesulfonate and Salts Thereof” (CVI Pharmaceuticals Limited, priority 2020, published 2023)

Columns and labels:
Assay type in all cases: physicochemical
[1] = Solid stability at 40° C./0% RH (closed) and 40° C./75% RH (open), HPLC; conditions: for 0 day % remaining / 7 day % remaining / 21 day % remaining: solid
Description: (§1) Solid stability: 5 mg of 2a was weighed into scintillation vials sealed properly and stored at 40° C./0% RH(closed), 40° C./75% RH(open) under dark conditions to avoid the effect of light on stability. Samples were collected at day 0, 5 and 10 and analyzed by HPLC.
Solid stability: 5 mg of compound was weighed into vials sealed properly and stored at 40° C./0% RH (closed), 40° C./75% RH (open) under dark conditions to avoid the effect of light. Samples were analyzed by HPLC at days 0, 7, and 21.
as §1, with “stability of compound 1a:” for “stability:”, “compound were accurately” for “of 2a was”, “condition” for “conditions”, “should be” for “were”, “10 days” for “10”

[2] = DVS (Dynamic Vapor Sorption) moisture sorption/desorption, hygroscopicity classification
Description: DVS (Dynamic Vapor Sorption): Around 10-20 mg of samples were used to test its moisture sorption/desorption profiles at 25° C. under 0%˜95%˜0% relative humidity (RH) cycle using dm/dt: 0.01%/min equilibrium and a measurement step of 5% RH.
Hygroscopicity Classification: Typical %-moisture gain as a function of increased RH was determined by DVS. Samples went through a dynamic test isothermally at 25° C. The test was divided into 2 processes, one was absorption process, the other was desorption process. RH ranged from 0% to 95% with 5% RH for each step, and when dm/dt<=0.01%, it was assumed the water sorption/desorption equilibrium is reached.

[3] = Solution stability in 0.1 N HCl, pH 4.5 buffer and pH 6.8 buffer at 25° C. and 37° C., HPLC
Description: Solution stability: A stock solution of compound (1.0 mg/mL) in MeOH was diluted with 0.1 N HCl, pH 4.5 buffer (acetate) and pH 6.8 buffer to reach constant ionic strength of 0.15 M and the same final concentration (50 μg/mL, 40% MeOH).
A stock solution of 1b and 3b (1.0 mg/mL) in MeOH was diluted with pH 6.8 buffer to reach constant ionic strength of 0.15M and the same final concentration (25 μg/mL, 40% […]).
The solutions were stored at 25° C. and 37° C.

[4] = Solubility in SGF, FaSSIF, FeSSIF, 0.1M HCl, pH 4.5 and pH 6.8 aqueous at 25° C. (HPLC); conditions: for Solubility conc.(mg/ml): solubility of salts transformed to freebase; for Final pH: solubility test
Description: Solubility: Excess drug substance was equilibrated with SGF (Simulated Gastric Fluid), FaSSIF (Simulated Small Intestinal Fluid under Fasted state), FeSSIF (Simulated Small Intestinal Fluid under Fed state), 0.1M HCl, pH 4.5 aqueous, and pH 6.8 aqueous at 25° C. After stirring for 20˜24 h, each sample was filtered, diluted appropriately and analyzed by HPLC. The experiment was terminated once a solubility target of 5 mg/mL was reached.

COc1ccc2c(c1)CCN1Cc3c(ccc(OC)c3OS(=O)(=O)c3cccc(F)c3)C[C@@H]21 [Compound 3b]
Solid-state stability (HPLC) ([1]; 40° C./0% RH (closed) and 40° C./75% RH (open), dark, up to 3 weeks): substantially stable
0 day % remaining ([1]; 40° C. (0% RH, closed)): 100.0%
7 day % remaining ([1]; 40° C. (0% RH, closed)): 99.1%
21 day % remaining ([1]; 40° C. (0% RH, closed)): 99.2%
0 day % remaining ([1]; 40° C./75% RH (open)): 100.0%
7 day % remaining ([1]; 40° C./75% RH (open)): 100.3%
21 day % remaining ([1]; 40° C./75% RH (open)): 99.8%
Hygroscopicity classification by DVS ([2]; 25 °C): hygroscopic
Change In Mass (%) - ref, Desorption ([2]; Cycle 1, target RH 0.0%): 0.05%
Change In Mass (%) - ref, Sorption ([2]; Cycle 1, target RH 0.0%): 0.00%
Change In Mass (%) - ref, Desorption ([2]; Cycle 1, target RH 5.0%): 0.26%
Change In Mass (%) - ref, Hysteresis ([2]; Cycle 1, target RH 5.0%): 0.23%
Change In Mass (%) - ref, Sorption ([2]; Cycle 1, target RH 5.0%): 0.03%
Change In Mass (%) - ref, Desorption ([2]; Cycle 1, target RH 10.0%): 0.46%
Change In Mass (%) - ref, Hysteresis ([2]; Cycle 1, target RH 10.0%): 0.18%
Change In Mass (%) - ref, Sorption ([2]; Cycle 1, target RH 10.0%): 0.28%
Change In Mass (%) - ref, Desorption ([2]; Cycle 1, target RH 15.0%): 0.61%
Change In Mass (%) - ref, Hysteresis ([2]; Cycle 1, target RH 15.0%): 0.29%
Change In Mass (%) - ref, Sorption ([2]; Cycle 1, target RH 15.0%): 0.32%
Change In Mass (%) - ref, Desorption ([2]; Cycle 1, target RH 20.0%): 4.13%
Change In Mass (%) - ref, Hysteresis ([2]; Cycle 1, target RH 20.0%): 3.79%
Change In Mass (%) - ref, Sorption ([2]; Cycle 1, target RH 20.0%): 0.34%
Change In Mass (%) - ref, Desorption ([2]; Cycle 1, target RH 25.0%): 8.89%
Change In Mass (%) - ref, Hysteresis ([2]; Cycle 1, target RH 25.0%): 8.50%
Change In Mass (%) - ref, Sorption ([2]; Cycle 1, target RH 25.0%): 0.39%
Change In Mass (%) - ref, Desorption ([2]; Cycle 1, target RH 30.0%): 9.08%
Change In Mass (%) - ref, Hysteresis ([2]; Cycle 1, target RH 30.0%): 1.62%
Change In Mass (%) - ref, Sorption ([2]; Cycle 1, target RH 30.0%): 7.46%
Change In Mass (%) - ref, Desorption ([2]; Cycle 1, target RH 35.0%): 9.14%
Change In Mass (%) - ref, Hysteresis ([2]; Cycle 1, target RH 35.0%): 0.21%
Change In Mass (%) - ref, Sorption ([2]; Cycle 1, target RH 35.0%): 8.93%
Change In Mass (%) - ref, Desorption ([2]; Cycle 1, target RH 40.0%): 9.18%
Change In Mass (%) - ref, Hysteresis ([2]; Cycle 1, target RH 40.0%): 0.13%
Change In Mass (%) - ref, Sorption ([2]; Cycle 1, target RH 40.0%): 9.06%
Change In Mass (%) - ref, Desorption ([2]; Cycle 1, target RH 45.0%): 9.26%
Change In Mass (%) - ref, Hysteresis ([2]; Cycle 1, target RH 45.0%): 0.16%
Change In Mass (%) - ref, Sorption ([2]; Cycle 1, target RH 45.0%): 9.10%
Change In Mass (%) - ref, Desorption ([2]; Cycle 1, target RH 50.0%): 10.73%
Change In Mass (%) - ref, Hysteresis ([2]; Cycle 1, target RH 50.0%): 1.59%
Change In Mass (%) - ref, Sorption ([2]; Cycle 1, target RH 50.0%): 9.14%
Change In Mass (%) - ref, Desorption ([2]; Cycle 1, target RH 55.0%): 10.99%
Change In Mass (%) - ref, Hysteresis ([2]; Cycle 1, target RH 55.0%): 1.77%
Change In Mass (%) - ref, Sorption ([2]; Cycle 1, target RH 55.0%): 9.22%
Change In Mass (%) - ref, Desorption ([2]; Cycle 1, target RH 60.0%): 11.23%
Change In Mass (%) - ref, Hysteresis ([2]; Cycle 1, target RH 60.0%): 1.82%
Change In Mass (%) - ref, Sorption ([2]; Cycle 1, target RH 60.0%): 9.41%
Change In Mass (%) - ref, Desorption ([2]; Cycle 1, target RH 65.0%): 11.50%
Change In Mass (%) - ref, Hysteresis ([2]; Cycle 1, target RH 65.0%): 0.36%
Change In Mass (%) - ref, Sorption ([2]; Cycle 1, target RH 65.0%): 11.14%
Change In Mass (%) - ref, Desorption ([2]; Cycle 1, target RH 70.0%): 11.84%
Change In Mass (%) - ref, Hysteresis ([2]; Cycle 1, target RH 70.0%): 0.04%
Change In Mass (%) - ref, Sorption ([2]; Cycle 1, target RH 70.0%): 11.79%
Change In Mass (%) - ref, Desorption ([2]; Cycle 1, target RH 75.0%): 12.27%
Change In Mass (%) - ref, Hysteresis ([2]; Cycle 1, target RH 75.0%): 0.04%
Change In Mass (%) - ref, Sorption ([2]; Cycle 1, target RH 75.0%): 12.23%
Change In Mass (%) - ref, Desorption ([2]; Cycle 1, target RH 80.0%): 12.85%
Change In Mass (%) - ref, Hysteresis ([2]; Cycle 1, target RH 80.0%): 0.05%
Change In Mass (%) - ref, Sorption ([2]; Cycle 1, target RH 80.0%): 12.79%
Change In Mass (%) - ref, Desorption ([2]; Cycle 1, target RH 85.0%): 13.71%
Change In Mass (%) - ref, Hysteresis ([2]; Cycle 1, target RH 85.0%): 0.08%
Change In Mass (%) - ref, Sorption ([2]; Cycle 1, target RH 85.0%): 13.64%
Change In Mass (%) - ref, Desorption ([2]; Cycle 1, target RH 90.0%): 15.23%
Change In Mass (%) - ref, Hysteresis ([2]; Cycle 1, target RH 90.0%): 0.15%
Change In Mass (%) - ref, Sorption ([2]; Cycle 1, target RH 90.0%): 15.08%
Change In Mass (%) - ref, Desorption ([2]; Cycle 1, target RH 95.0%): 17.97%
Change In Mass (%) - ref, Sorption ([2]; Cycle 1, target RH 95.0%): 17.97%
moisture picked up (DVS) ([2]; at 80% RH, 25 °C): ~13%
moisture picked up (DVS) ([2]; at 95% RH, 25 °C): ~18%
Remaining % ([3]; 25° C., 0.1N HCL, 0 h, 50 μg/mL, 40% MeOH): 100.00%
Remaining % ([3]; 25° C., 0.1N HCL, 3 h, 50 μg/mL, 40% MeOH): 100.31%
Remaining % ([3]; 25° C., 0.1N HCL, 24 h, 50 μg/mL, 40% MeOH): 100.62%
Solution stability ([3]; 25° C., 24 h, 0.1 N HCl, pH 4.5 buffer and pH 6.8 buffer): stable
Remaining % ([3]; 25° C., pH 4.5, 0 h, 50 μg/mL, 40% MeOH): 100.00%
Remaining % ([3]; 25° C., pH 4.5, 3 h, 50 μg/mL, 40% MeOH): 100.00%
Remaining % ([3]; 25° C., pH 4.5, 24 h, 50 μg/mL, 40% MeOH): 100.08%
Remaining % ([3]; 25° C., pH 6.8*, 0 h, final conc. 25 μg/mL with 40% DMSO): 100.00%
Remaining % ([3]; 25° C., pH 6.8*, 3 h, final conc. 25 μg/mL with 40% DMSO): 99.64%
Remaining % ([3]; 25° C., pH 6.8*, 24 h, final conc. 25 μg/mL with 40% DMSO): 99.64%
Remaining % ([3]; 37° C., 0.1N HCL, 0 h, 50 μg/mL, 40% MeOH): 100.00%
Remaining % ([3]; 37° C., 0.1N HCL, 3 h, 50 μg/mL, 40% MeOH): 99.92%
Remaining % ([3]; 37° C., 0.1N HCL, 24 h, 50 μg/mL, 40% MeOH): 100.92%
Solution stability ([3]; 37° C., 24 h, 0.1N HCl, pH 4.5 buffer): stable
Solution stability ([3]; 37° C., 24 h, pH 6.8 buffer): decomposed
Remaining % ([3]; 37° C., pH 4.5, 0 h, 50 μg/mL, 40% MeOH): 100.00%
Remaining % ([3]; 37° C., pH 4.5, 3 h, 50 μg/mL, 40% MeOH): 100.39%
Remaining % ([3]; 37° C., pH 4.5, 24 h, 50 μg/mL, 40% MeOH): 100.47%
Remaining % ([3]; 37° C., pH 6.8*, 0 h, final conc. 25 μg/mL with 40% DMSO): 100.00%
Remaining % ([3]; 37° C., pH 6.8*, 3 h, final conc. 25 μg/mL with 40% DMSO): 99.22%
Remaining % ([3]; 37° C., pH 6.8*, 24 h, final conc. 25 μg/mL with 40% DMSO): 85.89%
Solubility conc.(mg/ml) ([4]; 0.1N HCL): 0.261 mg/mL
Solubility conc.(mg/ml) ([4]; FaSSIF): 0.009 mg/mL
Solubility conc.(mg/ml) ([4]; FeSSIF): 0.010 mg/mL
Solubility conc.(mg/ml) ([4]; SGF): 1.828 mg/mL
Solubility conc.(mg/ml) ([4]; Water): 0.145 mg/mL
Solubility conc.(mg/ml) ([4]; pH 4.5 Acetate Buffer (USP)): 0.012 mg/mL
Solubility conc.(mg/ml) ([4]; pH 6.8 Phosphate Buffer (USP)): 0.014 mg/mL
Final pH ([4]; 0.1N HCL): 1.56
Final pH ([4]; FaSSIF): 6.04
Final pH ([4]; FeSSIF): 4.87
Final pH ([4]; SGF): 1.55
Final pH ([4]; Water): 2.71
Final pH ([4]; pH 4.5 Acetate Buffer (USP)): 4.42
Final pH ([4]; pH 6.8 Phosphate Buffer (USP)): 6.64
